± gives the expanded uncertainty stated by the source.
Settings: Liquid; for vapor or sublimation pressure: Closed cell (Static) method

FC(F)(F)C(F)(F)C(F)(C(F)(C(F)(F)F)C(F)(F)F)C(F)(C(F)(F)F)C(F)(F)F
Settings	vapor or sublimation pressure [kPa]
364.58 K	35 ± 6
368.2 K	40 ± 6
373.47 K	48 ± 6
378.29 K	56 ± 6
388.47 K	77 ± 6
398.2 K	103 ± 6
408.48 K	137 ± 6
418.26 K	176 ± 6
428.22 K	226 ± 6
438.31 K	286 ± 6
448.23 K	357 ± 6
458.16 K	438 ± 6
468.16 K	536 ± 6
478.24 K	649 ± 6
488.03 K	778 ± 6
498.02 K	928 ± 6
503.12 K	1014 ± 6
507.94 K	1104 ± 6

FC(F)(F)C(F)(F)C(F)(C(F)(F)C(F)(F)F)C(F)(C(F)(F)F)C(F)(F)F [perfluoro-2-methyl-3-ethylpentane]
Settings	Critical pressure [kPa]	Critical temperature [K]	vapor or sublimation pressure [kPa]
358.2 K	–	–	59 ± 6
368.19 K	–	–	82 ± 6
378.2 K	–	–	111 ± 6
388.17 K	–	–	146 ± 6
398.19 K	–	–	191 ± 6
408.13 K	–	–	245 ± 6
418.15 K	–	–	312 ± 6
428.16 K	–	–	391 ± 6
438.11 K	–	–	484 ± 7
448.07 K	–	–	593 ± 7
458.05 K	–	–	720 ± 7
468 K	–	–	866 ± 8
473 K	–	–	947 ± 8
477.98 K	–	–	1034 ± 8
482.95 K	–	–	1127 ± 8
487.89 K	–	–	1225 ± 9
492.92 K	–	–	1332 ± 9
497.89 K	–	–	1447 ± 10
502.9 K	–	–	1571 ± 10
Direct measurement	1685 ± 14	–	–
Visual observation in an unstirred cell	–	507.12 ± 0.6	–
